Reference: patent US20250122173A1, “MODULATORS OF RHO-ASSOCIATED PROTEIN KINASE” (Redx Pharma Limited, priority 2022, published 2025)

Legend:
ROCK1 = ROCK1 (Homo sapiens, UniProt Q13464); assay: ROCK1 inhibition assay (ROCK1 binding activity, as determined by the assay described for ROCK2); format: biochemical; settings: read-out: ROCK 1 (IC50 category)
Method: Assay for ROCK2 inhibition was performed using the protein construct N-terminal 6His-tagged ROCK2 catalytic domain 11-552 (Dundee University, UK). Protein was purified from a baculovirus expression system. Long S6 peptide ([…]) was used as substrate. Kinase reactions were carried out in 15 μl volume in a 96-well plate (black, half area) using 1.25 nM constitutively active ROCK2 kinase, 100 μM long S6 peptide, 20 μM ATP and test compound in DMSO (or DMSO only for controls). The final concentration of DMSO was 1%. Assay buffer was 50 mM HEPES pH 7.5 supplemented with 0.2 mM EDTA, 10 mM magnesium acetate, 0.01% Tween-20, 1 mM DTT and 0.01% BSA. Test compounds were pre-incubated with ROCK2 kinase for 1 hour before addition of ATP and long S6 peptide. After incubation for a further 1 hour, the amount of ADP produced was measured using ADP-Glo Kinase Assay (Promega) as per manufacturer's instructions. The luminescence was measured on a PHERAstar FS (BMG Labtech). The concentration of test compound required to inhibit ADP production by 50% (the IC50) was calculated using a four-parameter logistic function with software by Dotmatics. […] The category “+” refers to compounds with a ROCK2 or ROCK1 IC50 value of >10 μM. The category “++” refers to compounds with a ROCK2 or ROCK1 IC50 value of 10 to 3 μM. The category “+++” refers to compounds with a ROCK1 or ROCK2 IC50 value of 3 to 0.3 μM. The category “++++” refers to compounds with a ROCK1 or ROCK2 IC50 value of <0.3 μM.

ROCK2 = target: T1, ROCK2 (Homo sapiens, UniProt O75116); assay: ROCK2 inhibition assay (ADP-Glo kinase assay, called ROCK2 binding activity); format: biochemical; settings: 20 μM ATP, 1 hour pre-incubation, read-out: ROCK 2 (IC50 category)
T1 construct: N-terminal 6His-tagged ROCK2 catalytic domain 11-552; 6His (N); purchased Dundee University, UK; host or cells: baculovirus expression system
Method: ROCK2 Binding Activity: Assay for ROCK2 inhibition was performed using the protein construct N-terminal 6His-tagged ROCK2 catalytic domain 11-552 (Dundee University, UK). Protein was purified from a baculovirus expression system. Long S6 peptide ([…]) was used as substrate. Kinase reactions were carried out in 15 μl volume in a 96-well plate (black, half area) using 1.25 nM constitutively active ROCK2 kinase, 100 μM long S6 peptide, 20 μM ATP and test compound in DMSO (or DMSO only for controls). The final concentration of DMSO was 1%. Assay buffer was 50 mM HEPES pH 7.5 supplemented with 0.2 mM EDTA, 10 mM magnesium acetate, 0.01% Tween-20, 1 mM DTT and 0.01% BSA. Test compounds were pre-incubated with ROCK2 kinase for 1 hour before addition of ATP and long S6 peptide. After incubation for a further 1 hour, the amount of ADP produced was measured using ADP-Glo Kinase Assay (Promega) as per manufacturer's instructions. The luminescence was measured on a PHERAstar FS (BMG Labtech). The concentration of test compound required to inhibit ADP production by 50% (the IC50) was calculated using a four-parameter logistic function with software by Dotmatics. […] The category “+” refers to compounds with a ROCK2 or ROCK1 IC50 value of >10 μM. The category “++” refers to compounds with a ROCK2 or ROCK1 IC50 value of 10 to 3 μM. The category “+++” refers to compounds with a ROCK1 or ROCK2 IC50 value of 3 to 0.3 μM. The category “++++” refers to compounds with a ROCK1 or ROCK2 IC50 value of <0.3 μM.

T1 sequence (O75116 11-552): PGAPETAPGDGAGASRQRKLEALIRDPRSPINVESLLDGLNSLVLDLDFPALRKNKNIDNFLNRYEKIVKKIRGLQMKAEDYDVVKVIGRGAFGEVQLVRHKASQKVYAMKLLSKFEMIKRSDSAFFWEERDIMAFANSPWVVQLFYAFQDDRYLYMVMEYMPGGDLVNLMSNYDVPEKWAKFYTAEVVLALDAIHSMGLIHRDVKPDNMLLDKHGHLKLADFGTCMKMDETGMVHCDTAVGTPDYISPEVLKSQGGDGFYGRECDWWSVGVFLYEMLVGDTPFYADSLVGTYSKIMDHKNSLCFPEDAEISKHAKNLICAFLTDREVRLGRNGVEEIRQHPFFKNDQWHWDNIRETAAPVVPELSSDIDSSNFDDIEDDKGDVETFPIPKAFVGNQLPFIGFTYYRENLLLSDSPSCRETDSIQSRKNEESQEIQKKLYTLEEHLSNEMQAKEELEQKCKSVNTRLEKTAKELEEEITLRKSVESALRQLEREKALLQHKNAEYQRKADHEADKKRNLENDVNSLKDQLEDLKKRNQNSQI
Chain of ROCK1 (Q13464 whole entry, the tested form may be a part): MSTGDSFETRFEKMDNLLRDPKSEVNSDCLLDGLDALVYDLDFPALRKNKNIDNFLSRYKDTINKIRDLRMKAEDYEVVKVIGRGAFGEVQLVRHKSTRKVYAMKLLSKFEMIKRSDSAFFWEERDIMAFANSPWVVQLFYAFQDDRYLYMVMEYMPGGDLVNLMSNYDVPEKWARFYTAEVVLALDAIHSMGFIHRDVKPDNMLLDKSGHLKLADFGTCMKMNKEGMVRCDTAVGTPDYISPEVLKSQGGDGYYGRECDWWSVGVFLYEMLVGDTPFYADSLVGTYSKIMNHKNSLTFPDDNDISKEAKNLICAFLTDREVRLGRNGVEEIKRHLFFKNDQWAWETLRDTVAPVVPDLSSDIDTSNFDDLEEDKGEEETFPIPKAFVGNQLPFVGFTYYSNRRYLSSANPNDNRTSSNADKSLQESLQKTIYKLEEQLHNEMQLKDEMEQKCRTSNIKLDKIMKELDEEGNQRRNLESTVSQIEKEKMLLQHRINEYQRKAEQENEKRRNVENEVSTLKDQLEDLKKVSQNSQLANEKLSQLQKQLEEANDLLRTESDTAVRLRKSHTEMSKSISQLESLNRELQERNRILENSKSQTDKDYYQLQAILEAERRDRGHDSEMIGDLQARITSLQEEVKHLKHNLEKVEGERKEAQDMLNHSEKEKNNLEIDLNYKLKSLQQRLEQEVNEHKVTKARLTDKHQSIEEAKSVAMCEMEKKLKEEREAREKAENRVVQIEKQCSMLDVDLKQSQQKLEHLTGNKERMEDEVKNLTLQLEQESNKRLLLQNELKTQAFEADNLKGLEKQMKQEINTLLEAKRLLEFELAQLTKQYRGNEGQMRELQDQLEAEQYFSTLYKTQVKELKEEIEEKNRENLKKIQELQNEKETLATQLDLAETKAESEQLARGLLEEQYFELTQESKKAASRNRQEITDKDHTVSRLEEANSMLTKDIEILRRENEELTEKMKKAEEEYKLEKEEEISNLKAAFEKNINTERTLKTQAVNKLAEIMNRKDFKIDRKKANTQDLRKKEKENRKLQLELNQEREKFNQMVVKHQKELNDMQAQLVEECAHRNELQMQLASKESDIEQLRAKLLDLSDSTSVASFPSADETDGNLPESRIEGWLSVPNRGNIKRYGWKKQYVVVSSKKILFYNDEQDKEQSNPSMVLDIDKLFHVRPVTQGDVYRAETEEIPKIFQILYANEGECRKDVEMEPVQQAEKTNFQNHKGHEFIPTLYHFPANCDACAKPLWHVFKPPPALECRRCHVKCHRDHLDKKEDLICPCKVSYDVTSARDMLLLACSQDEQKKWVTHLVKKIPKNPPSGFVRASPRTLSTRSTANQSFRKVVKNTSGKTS

Row | Compound | IC50 (ROCK1) [µM] | IC50 (ROCK2) [µM]
1 | CCn1nc(-c2ccc(-c3ccc(C4CC4)cn3)c(C)c2)nc1Nc1ccc2c(c1)CNC2=O [Example 52] | > 10 | < 0.3
2 | CCn1nc(-c2ccc(-c3ccc(C)cn3)c(C)c2)nc1Nc1ccc2c(c1)C(C)NC2=O (stereo not drawn) [Example 53] | > 10 | < 0.3
3 | CCn1nc(-c2ccc(C3CCNCC3)cc2)nc1Nc1ccc2c(c1)CNC2=O [Example 54] | > 10 | 3 to 10
4 | CCn1nc(-c2ccc(-c3ccc(C4CC4)nc3)cc2)nc1Nc1ccc2c(c1)C1(CC1)NC2=O [Example 55] | > 10 | < 0.3
5 | CCn1nc(-c2ccc(-c3ccc(C)nc3)c(F)c2)nc1Nc1cc2c(cc1C)C(=O)NC2C (stereo not drawn) [Example 57] | > 10 | < 0.3
6 | CCn1nc(-c2ccc(-c3ccc(C4CC4)nc3)nc2)nc1Nc1ccc2c(c1)C(C)NC2=O (stereo not drawn) [Example 60] | > 10 | < 0.3
7 | CCn1nc(-c2ccc(-c3ccc(C4CC4)nc3)c(F)c2)nc1Nc1cc2c(cc1C)C(=O)NC2C (stereo not drawn) [Example 62] | > 10 | < 0.3
8 | CCn1nc(-c2ccc(-c3ccc(C4CC4)nc3)c(C)c2)nc1Nc1ccc2c(c1)C(C)NC2=O (stereo not drawn) [Example 66] | > 10 | < 0.3
9 | CCn1nc(-c2ccc(C3=CCNCC3)cc2)nc1Nc1ccc2c(c1)CNC2=O [Example 67] | 3 to 10 | 3 to 10
10 | CCn1nc(-c2ccc(C3=CCNC3)cc2)nc1Nc1ccc2c(c1)CNC2=O [Example 68] | > 10 | 3 to 10
11 | CCn1nc(-c2ccc(-c3ccc(C)nc3)cc2)nc1Nc1ccc2c(c1)C1(CC1)NC2=O [Example 69] | > 10 | < 0.3
12 | CCn1nc(-c2ccc(-c3ccc(C)nc3)nc2)nc1Nc1cc2c(cc1C)C(=O)NC2C (stereo not drawn) [Example 71] | > 10 | < 0.3
13 | CCn1nc(-c2ccc(-c3ccc(C)nc3)c(C)c2)nc1Nc1ccc2c(c1)C(C)NC2=O (stereo not drawn) [Example 72] | > 10 | < 0.3
14 | CCn1nc(-c2ccc(-c3ccc(C)cn3)c(F)c2)nc1Nc1ccc2c(c1)CNC2=O [Example 79] | > 10 | < 0.3
15 | CCn1nc(-c2ccc(-c3ccc(C4CC4)nc3)c(C)c2)nc1Nc1cc2c(cc1F)C(=O)NC2C (stereo not drawn) [Example 80] | > 10 | < 0.3
16 | CCn1nc(-c2ccc(-c3ccc(C)nc3)cc2F)nc1Nc1ccc2c(c1)C(C)NC2=O (stereo not drawn) [Example 81] | > 10 | < 0.3
17 | CCn1nc(-c2ccc(-c3ccc(C4CC4)nc3)c(F)c2)nc1Nc1cc2c(cc1F)C(=O)NC2C (stereo not drawn) [Example 85] | > 10 | < 0.3
18 | CCn1nc(-c2ccc(-c3cc(C)cnc3C)c(C)c2)nc1Nc1cc2c(cc1C)C(=O)NC2C (stereo not drawn) [Example 87] | > 10 | 3 to 10
19 | CCn1nc(-c2cc(C)c(-c3ccc(C4CC4)nc3)cc2C)nc1Nc1cc2c(cc1C)C(=O)NC2C (stereo not drawn) [Example 88] | > 10 | < 0.3
20 | CCn1nc(-c2ccc(-c3ccc(C)cn3)c(C)c2)nc1Nc1cc2c(cc1C)C(=O)NC2C (stereo not drawn) [Example 89] | > 10 | < 0.3
21 | CCn1nc(-c2ccc(-c3ncc(C)cc3C)c(C)c2)nc1Nc1cc2c(cc1C)C(=O)NC2C (stereo not drawn) [Example 90] | > 10 | 3 to 10
22 | CCn1nc(-c2ccc(-c3ccc(C)nc3C)c(C)c2)nc1Nc1cc2c(cc1C)C(=O)NC2C (stereo not drawn) [Example 92] | > 10 | < 0.3
23 | CCn1nc(-c2cc(C)c(-c3ccc(C)cn3)cc2C)nc1Nc1cc2c(cc1C)C(=O)NC2C (stereo not drawn) [Example 95] | > 10 | < 0.3

The next lines start with the values.

Row | IC50 (ROCK1) [µM] | IC50 (ROCK2) [µM] | Compound
24 | > 10 | < 0.3 | CCn1nc(-c2ccc(-c3ccc(C4CC4)nc3)c(C)c2)nc1Nc1ccc2c(c1)C1(CC1)NC2=O [Example 49]
25 | > 10 | < 0.3 | CCn1nc(-c2ccc(-c3ccc(C4CC4)nc3)cc2C)nc1Nc1ccc2c(c1)C(C)NC2=O (stereo not drawn) [Example 50]
26 | > 10 | < 0.3 | CCn1nc(-c2ccc(-c3ccc(C)nc3)c(C)c2)nc1Nc1ccc2c(c1)C1(CC1)NC2=O [Example 51]
27 | 3 to 10 | < 0.3 | CCn1nc(-c2ccc(-c3ccc(C4CC4)nc3)cc2C)nc1Nc1cc2c(cc1C)C(=O)NC2C (stereo not drawn) [Example 56]
28 | 3 to 10 | < 0.3 | CCn1nc(-c2ccc(-c3cnc(C4CC4)n3C)cc2)nc1Nc1cc2c(cc1C)C(=O)NC2C (stereo not drawn) [Example 58]
29 | 3 to 10 | < 0.3 | CCn1nc(-c2ccc(-n3cnc(C4CC4)c3)c(C)c2)nc1Nc1cc2c(cc1C)C(=O)NC2C (stereo not drawn) [Example 59]
30 | 3 to 10 | < 0.3 | CCn1nc(-c2ccc(-c3ccc(C)nc3)cc2)nc1Nc1ccc2c(c1)C(C)NC2=O (stereo not drawn) [Example 61]
31 | 3 to 10 | < 0.3 | CCn1nc(-c2ccc(-c3ccc(C)nc3)cc2C)nc1Nc1ccc2c(c1)C(C)NC2=O (stereo not drawn) [Example 63]
32 | 3 to 10 | < 0.3 | CCn1nc(-c2ccc(-c3cnc(C4CC4)n3C)cc2)nc1Nc1ccc2c(c1)C(C)NC2=O (stereo not drawn) [Example 64]
33 | 3 to 10 | < 0.3 | CCn1nc(-c2ccc(-c3cnc(C4CC4)n3C)c(C)c2)nc1Nc1ccc2c(c1)C(C)NC2=O (stereo not drawn) [Example 65]
34 | 3 to 10 | < 0.3 | CCn1nc(-c2ccc(-c3ccc(C4CC4)nc3)cc2)nc1Nc1cc2c(cc1C)C(=O)NC2C (stereo not drawn) [Example 70]
35 | 3 to 10 | < 0.3 | CCn1nc(-c2ccc(-c3ccc(C4CC4)nc3)cc2F)nc1Nc1cc2c(cc1C)C(=O)NC2C (stereo not drawn) [Example 73]
36 | 3 to 10 | < 0.3 | CCn1nc(-c2ccc(-c3ccc(C4CC4)nc3)cc2F)nc1Nc1ccc2c(c1)C(C)NC2=O (stereo not drawn) [Example 74]
37 | 3 to 10 | < 0.3 | CCn1nc(-c2ccc(-c3ccc(C)nc3)c(C)c2)nc1Nc1cc2c(cc1C)C(=O)NC2C (stereo not drawn) [Example 75]
38 | 3 to 10 | < 0.3 | CCn1nc(-c2ccc(-n3cnc(C4CC4)c3)c(C)c2)nc1Nc1ccc2c(c1)C(C)NC2=O (stereo not drawn) [Example 76]
39 | 3 to 10 | < 0.3 | CCn1nc(-c2cc(C)c(-c3ccc(C)nc3)cc2C)nc1Nc1cc2c(cc1C)C(=O)NC2C (stereo not drawn) [Example 77]
40 | 3 to 10 | < 0.3 | CCn1nc(-c2ccc(-n3cnc(C4CC4)c3)c(F)c2)nc1Nc1cc2c(cc1C)C(=O)NC2C (stereo not drawn) [Example 82]
41 | 3 to 10 | < 0.3 | CCn1nc(-c2cc(C)c(-c3ccc(C)nc3)cc2F)nc1Nc1cc2c(cc1C)C(=O)NC2C (stereo not drawn) [Example 83]
42 | 3 to 10 | < 0.3 | CCn1nc(-c2ccc(-n3cnc(C4CC4)c3)c(F)c2)nc1Nc1ccc2c(c1)C(C)NC2=O (stereo not drawn) [Example 86]
43 | 3 to 10 | < 0.3 | CCn1nc(-c2ccc(-c3cc(C)c(C)cn3)c(C)c2)nc1Nc1cc2c(cc1C)C(=O)NC2C (stereo not drawn) [Example 91]
44 | 3 to 10 | < 0.3 | CCn1nc(-c2ccc(-c3ccc(C)nc3)cc2)nc1Nc1ccc2c(c1)C(F)NC2=O (stereo not drawn) [Example 93]
45 | 3 to 10 | < 0.3 | CCn1nc(-c2cc(C)c(-c3ccc(C4CC4)nc3)cc2F)nc1Nc1cc2c(cc1C)C(=O)NC2C (stereo not drawn) [Example 94]
46 | 3 to 10 | < 0.3 | CCn1nc(-c2ccc(-c3ccc(C4CC4)nc3)nc2)nc1Nc1cc2c(cc1C)C(=O)NC2C (stereo not drawn) [Example 97]
47 | 3 to 10 | < 0.3 | CCn1nc(-c2cc(C)c(-c3ccc(C)nc3)cc2F)nc1Nc1ccc2c(c1)C(C)NC2=O (stereo not drawn) [Example 98]
48 | 3 to 10 | < 0.3 | CCn1nc(-c2cc(C)c(-c3cn(C)c(C4CC4)n3)cc2C)nc1Nc1ccc2c(c1)C(C)NC2=O (stereo not drawn) [Example 99]
